{"source": "paper PMC3731359", "about": "(PLoS ONE, 2013)", "molecules": {"B1": {"name": "biotin-pN26 (VLALRGG) (peptide)", "peptide": "{Biotin-LC-LC}-VLALRGG", "notes": "also called pN26 conjugated to biotin; source: synthetic peptide (EZBiolab), labelled with NHS-LC-LC-biotin, HPLC purified"}}, "key": {"NAE [1]": {"target": "T1, NAE (Homo sapiens, UniProt Q13564+Q8TBC4)", "T1 construct": "made in house; host or cells: E. coli BL21(DE3)pLysS", "T1 sequence (Q8TBC4 22-463 limits assumed)": "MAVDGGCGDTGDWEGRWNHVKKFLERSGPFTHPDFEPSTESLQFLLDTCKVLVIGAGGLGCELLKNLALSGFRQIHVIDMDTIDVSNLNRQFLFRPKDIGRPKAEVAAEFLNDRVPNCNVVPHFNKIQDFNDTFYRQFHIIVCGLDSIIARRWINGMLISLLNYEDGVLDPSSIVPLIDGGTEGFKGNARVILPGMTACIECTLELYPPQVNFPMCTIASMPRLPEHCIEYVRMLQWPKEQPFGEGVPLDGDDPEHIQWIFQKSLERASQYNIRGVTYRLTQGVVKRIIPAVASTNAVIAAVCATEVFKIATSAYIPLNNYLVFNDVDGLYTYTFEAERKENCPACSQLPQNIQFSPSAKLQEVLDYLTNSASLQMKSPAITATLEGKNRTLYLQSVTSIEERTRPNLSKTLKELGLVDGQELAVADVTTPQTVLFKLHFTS", "T1 sequence (Q13564 1-534 partner)": "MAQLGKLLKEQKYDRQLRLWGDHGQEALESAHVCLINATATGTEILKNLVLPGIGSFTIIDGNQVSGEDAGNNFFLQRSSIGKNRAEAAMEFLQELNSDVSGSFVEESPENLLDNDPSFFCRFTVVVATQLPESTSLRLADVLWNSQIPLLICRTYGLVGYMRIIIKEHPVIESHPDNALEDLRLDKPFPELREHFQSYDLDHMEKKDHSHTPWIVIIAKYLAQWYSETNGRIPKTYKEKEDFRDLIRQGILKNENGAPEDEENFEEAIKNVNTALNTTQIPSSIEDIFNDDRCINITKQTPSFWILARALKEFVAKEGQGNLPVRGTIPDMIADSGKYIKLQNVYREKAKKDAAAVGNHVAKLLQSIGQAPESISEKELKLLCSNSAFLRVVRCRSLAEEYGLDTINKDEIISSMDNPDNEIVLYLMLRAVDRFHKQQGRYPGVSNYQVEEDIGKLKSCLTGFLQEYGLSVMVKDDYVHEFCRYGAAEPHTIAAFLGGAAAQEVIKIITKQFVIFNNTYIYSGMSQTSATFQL", "conditions": "cited from earlier work", "description": "[…] binds to the nucleotide binding pocket of NAE as an AMP analog with a sulfamate ..."}, "cullin-3": {"system": "cullin-3", "assay": "Western blot: transfer of UB variants to cullin-3", "assay_type": "biochemical", "conditions": "5 µM HA-tagged protein, 1 µM NAE, 1 µM Ubc12, 1 µM cullin, 1 mM ATP, 1 h, room temperature, anti-HA Western blot", "description": "(§1) Figure 6 Transfer of phage selected UB variants to NAE (E1), Ubc12 (E2), and cullin-3. HA-tagged wt UB, wt Nedd8 and UB variants were used in the assay. In the control reaction, either Ubc12 or cullin-3 in complex with Rbx1 was missing. The blots were probed with a mouse anti-HA antibody and a goat anti-mouse IgG antibody linked to HRP.\n(§2) 20 µL of the reaction mixture were loaded on a 4–15% SDS-PAGE gel (Bio-Rad). After electrophoresis, the protein bands were electroblotted onto a piece of polyvinylidene fluoride membrane (Bio-Rad). The membrane was blocked with 3% BSA in TBS buffer for 1 hour followed by incubation with 3% BSA in TBS buffer containing 1∶500 diluted 200 µg/mL anti-HA antibody (Santa Cruz Biotechnology) and 1∶10,000 diluted anti-mouse horseradish peroxidase conjugate (Pierce) for 1 hour, respectively. The membrane was then washed 5 times with TBS-T buffer and 5 times with TBS buffer followed by detection with the ECL luminescent detection kit (GE Healthcare)."}, "Ubc12 (E2)": {"system": "Ubc12 (E2)", "assay": "Western blot: transfer of UB variants to Ubc12", "assay_type": "biochemical", "conditions": "5 µM HA-tagged protein, 1 µM NAE, 1 µM Ubc12, 1 µM cullin, 1 mM ATP, 1 h, room temperature, anti-HA Western blot", "description": "as §1, §2"}, "NAE [2]": {"target": "T1, NAE", "conditions": "Arg72Ala mutant of UB by site directed mutagenesis; cited from earlier work"}, "NAE (E1)": {"system": "NAE (E1)", "assay": "Western blot: formation of UB∼NAE thioester conjugates", "assay_type": "biochemical", "conditions": "5 µM HA-tagged protein, 1 µM NAE, 1 mM ATP, 1 h, room temperature, anti-HA Western blot", "description": "as §1, §2"}, "Ubc12": {"target": "T2, Ubc12 (UniProt P61081 1-183)", "T2 construct": "also called E2; source: expressed and purified as previously reported [33]", "T2 sequence (looked up)": "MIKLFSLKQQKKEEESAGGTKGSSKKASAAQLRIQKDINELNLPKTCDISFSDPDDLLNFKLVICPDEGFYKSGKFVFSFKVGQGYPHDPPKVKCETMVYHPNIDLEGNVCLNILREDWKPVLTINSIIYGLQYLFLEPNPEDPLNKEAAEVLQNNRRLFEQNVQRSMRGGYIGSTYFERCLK", "assay": "thioester conjugate formation (SDS-PAGE, Western blot); 5 µM biotin labeled peptide with 1 µM NAE, 1 µM Ubc12 and 1 µM cullin, 1 mM ATP, 10 mM MgCl2, 50 µM DTT, TBS, 1 hour, room temperature; streptavidin-HRP blot; covalent conjugates", "conditions": "both partners purified"}}, "note": "Ends that are not written are not given here. * marks the point of attachment. Biotin = O=C1N[C@H]2[C@H](CS[C@H]2CCCCC(=O)*)N1"}
{"molecule": "NS(=O)(=O)OC[C@@H]1C[C@@H](n2ccc3c(N[C@H]4CCc5ccccc54)ncnc32)C[C@@H]1O", "note": "[MLN4924]", "values": [{"measurement": "inhibition of NAE", "setting": "NAE [1]", "value": "potent inhibitor of NAE"}]}
{"molecule": "N26: UB variant with single Arg72Ala mutation, C-terminal sequence 71LALRGG76", "values": [{"measurement": "transfer to cullin (cullin modification)", "setting": "cullin-3", "value": "substantial cullin modification at a level similar or exceeding that of wt Nedd8"}, {"measurement": "transfer from NAE to Ubc12 (UB∼Ubc12 conjugates)", "setting": "Ubc12 (E2)", "value": "efficiently forms UB∼Ubc12 conjugates"}, {"measurement": "activity with NAE", "setting": "NAE [2]", "value": "previously found to be active with NAE"}, {"measurement": "formation of UB∼NAE conjugates", "setting": "NAE (E1)", "value": "can function as the wt Nedd8 for thioester formation with NAE and Ubc12"}]}
{"molecule": "B1", "values": [{"measurement": "binding result", "setting": "Ubc12", "value": "binds"}]}
